Values of other authors as cited in patent EP4005587B1, “PHARMACEUTICAL COMPOSITION FOR TREATING LEVODOPA-INDUCED DYSKINESIA OR FOR SUPPRESSING PROGRESSION THEREOF” (Peptron, Inc., priority 2019, dated 2026).

Legend:
[1] = compared to GLP-1-Tf
[2] = system: MPTP mouse model for Parkinson's disease; settings: given daily for 7 days after treatment

Substance: exendin-4
- rotarod performance [1]: improve rotarod performance
- acute effects of L-DOPA (lesioned rats; lesioned rats): potentiated
- 6-OHDA induced damage (lesioned rats; rat, in vivo): reduces 6-OHDA induced damage
- LIDS (lesioned rats; rat, in vivo): progressive reduction
- neuro-protection [2]: not effective
